Experimental data reported in patent US20200087258A1, “INHIBITOR OF CITRATE TRANSPORTER AND THEIR USE IN THERAPY” (Eternygen GmbH, priority 2017, published 2020).
pIC50: −log10 of the molar value.

What was measured:
INDY [1] = molecular target: T1, INDY (Homo sapiens, UniProt Q86YT5); experiment: 14C-citrate uptake in HepG2 cells endogenously expressing INDY (NaCT); type: cell-based; conditions: endogenous INDY
Protocol: The compound was obtained by screening of a library containing more than 50,000 lead-like compounds and fragments. The library was tested using a functional citrate uptake assay with HEK293 cells overexpressing recombinant human INDY. The following hit confirmation was conducted in the same assay system. To confirm the activity of selected compounds on the target INDY another cell assay was conducted. In this assay system citrate uptake was measured using HepG2 cells which endogenously express INDY. Furthermore selectivity of selected compounds was tested for two other transporters in different assay systems. The first transporter was the glutamate transporter GLT-1 tested in a glutamate uptake assays using HEK293 cells overexpressing recombinant human GLT-1. The second transporter was the glucose transporter GLUT1 tested in a glucose uptake assay using Huh-7 cells which endogenously express GLUT1. Compounds were considered to be selective with an at least 5-fold higher activity for INDY than for the other two transporters.
Cells were maintained in cell medium using cell culture grade flasks (CellSTACK Corning, 500 cm2 dishes or T175 depending on cell number). The selection antibiotic and G418 (800 μg/ml) was added during cultivation but not for seeding into assay plates. For splitting, cells were washed with PBS (w/o Ca2+, Mg2+, phenol red) and detached with Trypsin/EDTA. Throughout cultivation cells were kept sub-confluent. Detached cells (50,000 cells/well) were seeded in 96-well plates (white, clear bottom from Corning #655098) and incubated over night before usage in the assay. The following media were used. For HEK293 cells expressing INDY MEM (PAA)+10% FCS+1×P/S+2 mM L-Gln; for HEK293 cells expressing GLT-1 DMEM (Gibco)+10% FCS+400 µg/ml G418; for Huh7 cells DMEM (Gibco)+10% FCS+2 mM L-Gin (+1×P/S); for HepG2 cells MEM (PAA, Cat # E15-024)+10% FCS+2 mM L-Gin+1×NEAA+1 mM Na-Pyruvat
The following assay buffers for the particular uptake reaction were used. Citrate uptake buffer: 120 mM NaCl, 5.4 mM KCl, 0.8 mM MgSO4, 5 mM glucose, 1.8 mM CaCl2, 25 mM Hepes, 25 mM MES, pH 6.5. Glutamate uptake buffer: HBSS, 1 mM CaCl2, 1 mM MgCl2, 20 mM Hepes pH 7.4. Glucose uptake buffer: 25 mM Hepes+25 mM MES pH 7.4, 120 mM NaCl, 5.4 mM KCl, 1.8 mM CaCl2, 0.8 mM MgSO4.
INDY mediated citrate uptake was also determined in HepG2 cells. To determine the uptake of ^14C labelled citrate into cells, HepG2 cells endogenously expressing human NaCT were used. (Gopal et al. 2007 Am J Physiol Gastrointest Liver Physiol 292).
HepG2 cells were seeded into white clear-bottom 96-well plates (50,000/well) coated with collagen and incubated at 37° C. for 16-24 hours. After that plates were washed once with assay buffer using automated washing/LS 405 Selectors, BioTek ending with a buffer volume of 40 μl. Then 5 μl of compound solution in assay buffer was added and incubated for 5 min at 37° C. in cell incubator, HERA cell Heraeus. Afterwards 10 μl of substrate 14C-citrate (10 nM) were added and incubated for another 90 min at 37° C. in cell incubator, HERAcell. Then plates were washed 3× with 200 μl buffer and […] cell lysis induced by adding 50 μl ice-cold NaOH (100 mM). Plates were incubated for 25 min at RT on a plate shaker and afterwards 200 μl scintillation fluid was added and incubated for 15 min on a plate shaker at RT and for another 15 min without shaking at RT. Plates were measured using a TopCount system. As a positive control 5 mM citrate was applied. It is possible to use this assay also in analogy in a 384-well plate format.

INDY [2] = molecular target: T1, INDY; experiment: 14C-citrate uptake in HEK293 cells overexpressing recombinant human INDY (NaCT); type: cell-based; design: expressed in transfected cells; host or cells: HEK293
Summary of the method: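 HEK293 cells overexpressing human NaCT, 50,000/well, preincubated 5-30 min at 37 °C with compound in pH 6.5 Na+ buffer. 14C-citrate ([…]) uptake then ran 20-90 min at 37 °C, followed by ice-cold washes, NaOH lysis and scintillation counting. 10 mM citrate served as positive control.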

T1 sequence (Q86YT5 whole entry, the tested form may be a part): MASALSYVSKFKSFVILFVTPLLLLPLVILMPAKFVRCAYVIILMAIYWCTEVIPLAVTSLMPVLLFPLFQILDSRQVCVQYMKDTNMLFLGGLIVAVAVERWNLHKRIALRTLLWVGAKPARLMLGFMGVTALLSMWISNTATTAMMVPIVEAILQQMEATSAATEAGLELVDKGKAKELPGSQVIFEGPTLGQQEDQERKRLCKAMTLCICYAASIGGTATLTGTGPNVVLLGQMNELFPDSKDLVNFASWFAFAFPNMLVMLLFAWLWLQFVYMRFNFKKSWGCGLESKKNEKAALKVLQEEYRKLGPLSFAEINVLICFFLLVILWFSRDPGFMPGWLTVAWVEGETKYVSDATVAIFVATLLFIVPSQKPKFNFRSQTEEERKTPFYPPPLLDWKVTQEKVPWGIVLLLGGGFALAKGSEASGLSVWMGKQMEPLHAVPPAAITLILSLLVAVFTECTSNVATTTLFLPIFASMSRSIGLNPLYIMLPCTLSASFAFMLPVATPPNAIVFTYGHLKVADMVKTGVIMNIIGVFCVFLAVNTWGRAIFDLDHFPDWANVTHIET

Row | SMILES | pIC50 (INDY [1]) | pIC50 (INDY [2])
1 | O=C(NCc1ccccn1)C1CCN(S(=O)(=O)c2cccc(S(F)(F)(F)(F)F)c2)CC1 [Example 85, 1-[3-(pentafluoro-lambda6-sulfanyl)benzenesulfonyl]-N-[(pyridin-2-yl)methyl]pipendine-4-carboxamide] | 5.52 | 5.19
2 | O=C(NCc1cccc(CO)c1)C1CCN(S(=O)(=O)c2cc(Cl)cc(Cl)c2)CC1 [Example 117, 1-(3,5-dichlorobenzenesulfonyl)-N-{[3-(hydroxymethyl)phenyl]methyl}piperidine-4-carboxamide] | 6.30 | 6.10
3 | O=C(NCc1ccccn1)C1CCN(S(=O)(=O)c2ccc(CC(F)(F)F)cc2)CC1 [Example 99, N-[(pyridin-2-yl)methyl]-1-[4-(2,2,2-trifluoroethyl)benzenesulfonyl]piperidine-4-carboxamide] | 5.49 | 5.20
4 | O=C(NCc1ccccn1)C1CCN(S(=O)(=O)c2cc(F)cc(Cl)c2)CC1 [Example 78, 1-(3-chloro-5-fluorobenzenesulfonyl)-N-[(pyridin-2-yl)methyl]pipendine-4-carboxamide] | 5.62 | 5.31
5 | O=C(NCc1ccc(O)cc1)C1CCN(S(=O)(=O)c2cc(Cl)cc(Cl)c2)CC1 [Example 123, 1-(3,5-dichlorobenzenesulfonyl)-N-[(4-hydroxyphenyl)methyl]piperidine-4-carboxamide] | 5.89 | 5.70
6 | O=C(NCc1cccc(F)c1)C1CCN(S(=O)(=O)c2cc(Cl)cc(Cl)c2)CC1 [Example 115, 1-(3,5-dichlorobenzenesulfonyl)-N-[(3-fluorophenyl)methyl]piperidine-4-carboxamide] | 7.00 | 6.70
7 | O=C(NCc1cccc(O)c1)C1CCN(S(=O)(=O)c2cc(Cl)cc(Cl)c2)CC1 [Example 114, 1-(3,5-dichlorobenzenesulfonyl)-N-[(3-hydroxyphenyl)methyl]piperidine-4-carboxamide] | 6.22 | 6.15

Further lines, results first:

Row | pIC50 (INDY [1]) | pIC50 (INDY [2]) | SMILES
8 | 5.68 | 6.70 | CC(C)(C)c1ccc(S(=O)(=O)N2CCC(C(=O)NCc3ccccc3Cl)CC2)cc1 [Example 39, 1-(4-tert-butylbenzenesulfonyl)-N-[(2-chlorophenyl)methyl]piperidine-4-carboxamide]
9 | 6.05 | 5.96 | O=C(NCc1ccccc1F)C1CCN(S(=O)(=O)c2cccc(Cl)c2)CC1 [Example 59, 1-(3-chlorobenzenesulfonyl)-N-[(2-fluorophenyl)methyl]piperidine-4-carboxamide]
10 | 6.00 | 6.30 | CC(C)(C)c1cccc(S(=O)(=O)N2CCC(C(=O)NCc3ccccc3F)CC2)c1 [Example 33, 1-(3-tert-butylbenzenesulfonyl)-N-[(2-fluorophenyl)methyl]piperidine-4-carboxamide]
11 | 5.62 | 5.52 | O=C(NCc1ccccc1F)C1CCN(S(=O)(=O)c2ccc(Cl)cc2)CC1 [Example 27, 1-(4-chlorobenzenesulfonyl)-N-[(2-fluorophenyl)methyl]piperidine-4-carboxamide]
12 | 5.47 | 5.30 | COc1ccccc1S(=O)(=O)N1CCC(C(=O)NCc2ccccc2F)CC1 [Example 19, N-[(2-fluorophenyl)methyl]-1-(2-methoxybenzenesulfonyl)piperidine-4-carboxamide]
13 | 6.10 | 6.10 | O=C(NCc1ccccc1F)C1CCN(S(=O)(=O)c2ccc(-c3ccccc3)cc2)CC1 [Example 30, 1-{[1,1′-biphenyl]-4-sulfonyl}-N-[(2-fluorophenyl)methyl]piperidine-4-carboxamide]
14 | 5.82 | 5.85 | COc1cccc(S(=O)(=O)N2CCC(C(=O)NCc3ccccc3F)CC2)c1 [Example 16, N-[(2-fluorophenyl)methyl]-1-(3-methoxybenzenesulfonyl)piperidine-4-carboxamide]
15 | 6.00 | 6.00 | O=C(NCc1ccccc1F)C1CCN(S(=O)(=O)c2ccc(I)cc2)CC1 [Example 36, N-[(2-fluorophenyl)methyl]-1-(4-iodobenzenesulfonyl)piperidine-4-carboxamide]
